Structures can show the parent of a compound that is named as a salt. Where two headings read alike, the source gives them in different places.
Experiments:
A-375 (human melanoma) = test: Growth inhibition studies, crystal violet staining, 72 hr; type: cell-based; conditions: A-375, 72 h
Description: Growth Inhibition Studies. […] cell lines: A-375 (human melanoma), LSl174T (colon carcinoma), ME 180 (cervical carcinoma), SK-OV-3 (ovarian carcinoma), and BT-474 (breast carcinoma) were routinely grown in […] Minimal Essential Medium (MEM, Gibco Inc.) containing 10% fetal bovine serum albumin (Atlanta Biologics). Cells were passaged weekly by trypsinization (Gibco) followed by plating at reduced density (50,000 cells/ml). They were routinely tested and found to be free of mycoplasma contamination. Cells were harvested by trypsinization and plated in 96 well plates at a density of 5,000 per well in 100 μl of MEM culture media. Cells were allowed to adhere by incubation for 24 hr at 37° C. in humidified 5% CO2. The wells containing log-phase cells were treated with complete MEM containing serial dilutions of N-[(4"RS-4"-Ethoxy-4"-β-D-glucopyranurongloxy)butyl]daunorubicin (sodium salt) 10b at concentrations ranging from 10^-5 to 10^-14 M Each well also contained a 50-fold unit excess of β-glucuronidase (i.e., 50 units of enzyme per βmole of substrate). Control reactions were run with 10b in the absence of β-glucuronidase, daunomycin alone, and daunomycin in the presence β-glucuronidase. […] Cell-bound dye was solubilized with Sorenson's Buffer (0.1 M sodium citrate, pH 4.2-ethanol, 1:1, v/v) and the wells were read on an ELISA microplate autoreader at 540 nm. […]

[1] = biological target: β-Glucuronidase (E. Coli) (EC 3. 2. 1. 31) (Escherichia coli, UniProt P05804); test: in vitro; conditions: beta-glucuronidase, phosphate buffer, pH 7.4, half-life for the disappearance of 10b
carcinoma cells = conditions: glucuronide versus parent epirubicin; cited from earlier work

Chain of β-Glucuronidase (E. Coli) (EC 3. 2. 1. 31) (P05804 whole entry): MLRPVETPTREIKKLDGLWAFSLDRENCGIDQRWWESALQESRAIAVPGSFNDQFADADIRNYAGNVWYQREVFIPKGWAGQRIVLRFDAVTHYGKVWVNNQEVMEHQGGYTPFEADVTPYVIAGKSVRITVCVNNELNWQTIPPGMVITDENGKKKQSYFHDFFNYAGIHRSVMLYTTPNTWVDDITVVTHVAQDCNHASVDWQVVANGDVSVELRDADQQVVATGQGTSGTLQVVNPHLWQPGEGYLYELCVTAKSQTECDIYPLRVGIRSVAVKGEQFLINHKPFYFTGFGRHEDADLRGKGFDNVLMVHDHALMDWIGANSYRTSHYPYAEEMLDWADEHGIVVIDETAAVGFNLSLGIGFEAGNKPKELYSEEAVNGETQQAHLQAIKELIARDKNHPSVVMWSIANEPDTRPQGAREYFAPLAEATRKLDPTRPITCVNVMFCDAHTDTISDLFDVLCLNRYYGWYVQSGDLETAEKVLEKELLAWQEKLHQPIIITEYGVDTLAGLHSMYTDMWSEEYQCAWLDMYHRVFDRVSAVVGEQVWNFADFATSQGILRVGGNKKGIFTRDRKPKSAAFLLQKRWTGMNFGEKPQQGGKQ

| Structure (SMILES) | IC50 (A-375 (human melanoma); read-out: IC50 (drug concentration that inhibited cell growth by 50%), A375 cell line, in the absence of β-glucuronidase, 72 hr) [ng/mL] | IC50 (A-375 (human melanoma); read-out: IC50 (drug concentration that inhibited cell growth by 50%), A375 cell line, in the presence of glucuronidase (50 units of enzyme per µmole of substrate), 72 hr) [ng/mL] | half-life at 100 µM [1] [h] | half-life at 100 µM ([1]; 10-fold enzyme excess (10 units of enzyme per µmol of substrate), 0.05 M potassium phosphate buffer pH 7.4) [h] | half-life at 100 µM ([1]; 20-fold enzyme excess (20 units of enzyme per µmol of substrate), 0.05 M potassium phosphate buffer pH 7.4) [h] | detoxification of the parent drug (carcinoma cells) |
| --- | --- | --- | --- | --- | --- | --- |
| CCOC(CCCN[C@H]1C[C@H](O[C@H]2C[C@](O)(C(C)=O)Cc3c(O)c4c(c(O)c32)C(=O)c2c(OC)cccc2C4=O)O[C@@H](C)[C@H]1O)O[C@@H]1O[C@H](C(=O)O)[C@@H](O)[C@H](O)[C@H]1O (stereo partly drawn) [Compound 10b, N-[(4"RS)-4"-Ethoxy-4"-(β-D-glucopyranuronyloxy)butyl]daunorubicin (Sodium salt)] | 200 | 0.02 | 8.1 | 6.9 | 2 |  |
| COc1cccc2c1C(=O)c1c(O)c3c(c(O)c1C2=O)C[C@@](O)(C(=O)CO)C[C@@H]3O[C@H]1C[C@H](N)[C@@H](O[C@@H]2O[C@H](C(=O)O)[C@@H](O)[C@H](O)[C@H]2O)[C@H](C)O1 [glucuronide of epirubicin] |  |  |  |  |  | up to 1000 fold |

Reference: US6218519A, “Compounds and methods for the selective treatment of cancer and bacterial infections” (Pro-Neuron, Inc., priority 1996, dated 2001)
